Test results published in patent US20220144812A1, “QUINOLINE DERIVATIVES AND THEIR USE FOR THE TREATMENT OF CANCER” (Epizyme, Inc., priority 2019, published 2022).
Read-outs that look alike come from different tables or passages of the source.

How the values were obtained:
[1] = tested on: H3K18Ac in HB-CLS-2 cells; experiment: H3K18AC in-cell western (ICW) assay; format: cell-based; settings: read-out: CREBBP ICW IC50
Method in brief: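 In-cell western: after methanol fixation, blocking, overnight 4° C anti-H3K18Ac staining, then 800CW secondary plus DRAQ5 for DNA content, integrated intensities were scanned at 800 and 700 nm. Before this, compound exposure lasted 2 hr at 37° C in HB-CLS-2 cells plated 16–24 hours earlier. Values expressed as IC50 (μM).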

[2] = tested on: 647V cells; experiment: High throughput proliferation (HTP) assay; format: cell-based; settings: read-out: CREBBP HTP IC50
From the text: The following example describes methods and materials relating to a high throughput proliferation (HTP) assay. IC50 values (micromolar) are summarized in Table 1, Table 2, and Table 3 under the column labeled: “CREBBP HTP IC50 (micromolar).”
MATERIALS: 647V cell line, Dulbecco's MEM, penicillin-streptomycin, heat inactivated fetal bovine serum, D-PBS, and CellTiter-Glo were commercially available.
647V adherent cells were maintained in complete growth medium (Dulbecco's MEM supplemented with 15% v/v heat inactivated fetal bovine serum) and cultured at 37° C. under 5% CO2.
METHOD: Measurement of the effect of compound in High Throughput Proliferation (HTP) assays was performed as follows: Exponentially growing 647V cells were plated, in triplicate, in 384-well plates at the appropriate cell density in a final volume of 50 μl. Cells were incubated in the presence of increasing concentrations of compound. Viable cell number was determined at day 7 by addition of 35 μl CellTiter-Glo to each well of the plate, incubated in the dark for 30 minutes, and read on a PerkinElmer EnVision instrument to enumerate the number of cells.

[3] = biological target: T1, CREBBP (1084-1701) (Homo sapiens, UniProt Q92793); experiment: Biochemical assay for CREBBP (1084-1701), SAMDI; settings: SAMDI, read-out: CREBBP Biochemistry IC50
T1 construct: measured in the following biochemical assay using CREBBP (1084-1701); purchased
T1 sequence (Q92793 1084-1701): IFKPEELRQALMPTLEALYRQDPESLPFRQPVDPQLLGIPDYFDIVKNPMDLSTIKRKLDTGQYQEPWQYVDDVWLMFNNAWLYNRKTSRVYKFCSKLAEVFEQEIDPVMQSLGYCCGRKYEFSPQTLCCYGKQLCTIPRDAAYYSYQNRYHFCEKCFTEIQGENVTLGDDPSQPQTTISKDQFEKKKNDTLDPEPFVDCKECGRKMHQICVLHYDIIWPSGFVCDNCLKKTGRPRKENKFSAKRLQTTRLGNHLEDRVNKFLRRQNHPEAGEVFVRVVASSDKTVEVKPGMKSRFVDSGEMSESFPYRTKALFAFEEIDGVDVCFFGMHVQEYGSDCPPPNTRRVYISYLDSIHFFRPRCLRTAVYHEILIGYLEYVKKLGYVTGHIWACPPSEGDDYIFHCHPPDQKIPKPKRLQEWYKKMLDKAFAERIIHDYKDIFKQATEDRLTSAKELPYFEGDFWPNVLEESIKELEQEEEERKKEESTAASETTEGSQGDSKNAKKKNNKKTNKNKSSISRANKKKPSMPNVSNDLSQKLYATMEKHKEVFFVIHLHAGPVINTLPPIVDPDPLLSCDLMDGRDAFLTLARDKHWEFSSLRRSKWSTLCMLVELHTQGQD
Method in brief: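 Acetyltransferase activity measured by SAMDI mass spectrometry after capture on biochip. Enzyme sat with compound 30 min at RT before acetyl-CoA and biotinylated H3 11-25 (K14R, K23R) peptide were added for 30 min at RT. Formic acid quench, bicarbonate neutralisation; IC50 values reported.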

[4] = Homo sapiens, 647-V, high throughput proliferation
[5] = H3K18Ac in-cell western, HB-CLS-2 cells
[6] = Homo sapiens, 647-V, high throughput proliferation, 647V cells
[7] = 2 h, H3K18Ac in HB-CLS-2 cells, 2 hrs compound incubation
[8] = Homo sapiens, 647-V, 168 h, 647V cells, day 7, CellTiter-Glo

CCn1ncc(CN(C)C(=O)c2nc(-c3ccc4nc[nH]c4c3)nc3ccc(Cl)cc23)c1C [Compound 47]
IC50 ([1]; H3K18Ac in-cell western): 0.43 µM | IC50 [2, 4]: 0.42 µM

CCn1ncc(CN(C)C(=O)c2nc(-c3ccc4[nH]cnc4c3)nc3ccc(Cl)cc23)c1C [Compound 57]
IC50 ([1]; H3K18Ac in-cell western): 0.66 µM | IC50 [2, 4]: 0.5 µM

CCn1ncc(CN(C)C(=O)c2nc(-c3ccc4nc[nH]c4c3)nc3ccc(Cl)cc23)c1C [Compound 59]
IC50 ([1]; H3K18Ac in-cell western): 0.67 µM | IC50 ([2]; high throughput proliferation): 0.44 µM

CCn1ncc(CN(C)C(=O)c2cc(-n3cc4c(n3)CN(C(=O)OC(C)(C)C)CC4)nc3ccc(Cl)cc23)c1C [Compound 178]
IC50 ([1]; H3K18Ac in-cell western): 17 µM | IC50 [2, 4]: 4.8 µM

CCn1ncc(CN(C)C(=O)c2nc(-c3cc(Cl)cc(OCCCNC(=O)OC(C)(C)C)c3)nc3ccc(Cl)cc23)c1C [Compound 180]
IC50 ([1]; H3K18Ac in-cell western): 19 µM | IC50 [2, 4]: 20 µM

CCn1ncc(CN(C)C(=O)c2nc(-n3ncc4c3CN(C(=O)OC(C)(C)C)CC4)nc3ccc(Cl)cc23)c1C [Compound 192]
IC50 ([1]; H3K18Ac in-cell western): 20 µM | IC50 [2, 4]: 9.4 µM

CCn1ncc(CN(C)C(=O)c2nc(-n3cc4c(n3)CN(C(=O)OC(C)(C)C)CC4)nc3ccc(Cl)cc23)c1C [Compound 193]
IC50 ([1]; H3K18Ac in-cell western): 20 µM | IC50 [2, 4]: 8.2 µM

CCn1ncc(CN(C)C(=O)c2nc(N3CCCN(C)CC3)nc3ccc(Cl)cc23)c1C [Compound 196]
IC50 ([1]; H3K18Ac in-cell western): 20 µM | IC50 [2, 4]: 17 µM

CCc1cc(-c2nc(C(=O)N(C)Cc3cnn(CC)c3C)c3cc(Cl)ccc3n2)ccc1OCCCN(C)C(=O)OC(C)(C)C [Compound 209]
IC50 [1, 5]: 20 µM | IC50 [2, 6]: 8.8 µM

CCn1ncc(CN(C)C(=O)c2cc(-c3ccc(OCCCNC)cn3)nc3ccc(Cl)cc23)c1C [Compound 219]
IC50 [1, 5]: 20 µM | IC50 [2, 6]: 20 µM

CCc1[nH]cc(CN(C)C(=O)c2nc(-c3ccccc3Cl)nc3ccc(Cl)cc23)c1C [Compound 221]
IC50 [1, 5]: 20 µM | IC50 [2, 6]: 10 µM

Cc1n[nH]c(C)c1CN(C)C(=O)c1nc(-c2ccccc2Cl)nc2ccc(Cl)cc12 [Compound 229]
IC50 [1, 5]: 20 µM | IC50 [2, 6]: 20 µM

CCn1ncc(CN(C)C(=O)c2nc(-c3cn(CCCN(C)C(=O)OC(C)(C)C)cn3)nc3ccc(Cl)cc23)c1C [Compound 230]
IC50 [1, 5]: 20 µM | IC50 [2, 6]: 20 µM

CCn1ncc(CN(C)C(=O)c2nc(-c3cc(Cl)cc(OCCCN(C)C(=O)OC(C)(C)C)c3)nc3ccc(Cl)cc23)c1C [Compound 233]
IC50 [1, 5]: 20 µM | IC50 [2, 6]: 20 µM

CCn1ncc(CN(C)C(=O)c2nc(-c3ccc(OCCNC)cn3)nc3ccc(Cl)cc23)c1C [Compound 238]
IC50 [1, 5]: 20 µM | IC50 [2, 6]: 20 µM

CCn1ncc(CN(C)C(=O)c2cc(-c3cn(Cc4ccc(OC)cc4)c(CN(C)C)n3)nc3ccc(Cl)cc23)c1C [Compound 239]
IC50 [1, 5]: 20 µM | IC50 [2, 6]: 20 µM

CCn1ncc(CN(C)C(=O)c2nc(-c3cn(CCN(C)C(=O)OC(C)(C)C)cn3)nc3ccc(Cl)cc23)c1C [Compound 240]
IC50 [1, 5]: 20 µM | IC50 [2, 6]: 20 µM

CCn1ncc(CN(C)C(=O)c2nc(N3CCN(C)CC3)nc3ccc(Cl)cc23)c1C [Compound 245]
IC50 [1, 5]: 20 µM | IC50 [2, 6]: 20 µM

CCn1ncc(CN(C)C(=O)c2nc(-c3cncn3C)nc3ccc(Cl)cc23)c1C [Compound 363]
IC50 [1, 5]: 7.4 µM | IC50 [3]: 9.2 µM

CCn1ncc(CN(C)C(=O)c2cc(-c3cccc(Cl)c3)nc3ccc(N(C)C)cc23)c1C [Compound 369]
IC50 [1, 5]: 15 µM | IC50 [3]: 5.5 µM

CCn1ncc(CN(C)C(=O)c2nc(-c3ccc(OC)cc3)nc3ccc(Cl)cc23)c1C [Compound 373]
IC50 [1, 5]: 4.5 µM | IC50 [3]: 2.3 µM

CCc1ccc(-c2nc(C(=O)N(C)Cc3cnn(CC)c3C)c3cc(Cl)ccc3n2)cc1 [Compound 374]
IC50 [1, 5]: 18 µM | IC50 [3]: 9.2 µM

CCn1ncc(CN(C)C(=O)c2cc(-c3ccc(NCC(O)CN(C)C)c(C)n3)nc3ccc(COC)cc23)c1C (stereo not drawn) [Compound 643]
IC50 [1, 7]: 0.327 µM | IC50 [2, 8]: 0.233 µM

CCc1ncc(CN(C)C(=O)c2cc(-c3ccc(NCC(O)CN(C)C)c(C)n3)nc3ccc(COC)cc23)n1C (stereo not drawn) [Compound 644]
IC50 [1, 7]: 0.701 µM | IC50 [2, 8]: 0.269 µM
